Source: US20120316158A1, “OPHTHALMIC SOLUTION FOR TREATING OCULAR INFECTION COMPRISING LEVOFLOXACIN OR SALT THEREOF OR SOLVATE OF THE SAME, METHOD FOR TREATING OCULAR INFECTION, LEVOFLOXACIN OR SALT THEREOF OR SOLVATE OF THE SAME, AND USE THEREOF” (priority 2010, published 2012)

Key:
[1] = system: methicillin-sensitive Staphylococcus aureus; details: isolates from a patient suffering from bacterial keratitis; cited from earlier work
MSSA = assay: MIC of clinical isolate from a patient suffering from an external ocular infection; type: cell-based; details: Staphylococcus aureus; MSSA clinical isolate from a patient with an external ocular infection
Protocol: MSSA (MIC=0.5 μg/mL with respect to levofloxacin) was isolated from a patient suffering from an external ocular infection.

MIC (MSSA): 0.5 µg/mL
Compound: C[C@H]1COc2c(N3CCN(C)CC3)c(F)cc3c(=O)c(C(=O)O)cn1c23 [levofloxacin, Levofloxacin]
clinically isolated MSSA resistant to levofloxacin [1]: about 10%
